Here are results for 55 molecules from patent publication US9868746B2, “Substituted 5-aminothieno[2,3-C]pyridazine-6-carboxamide analogs as positive allosteric modulators of the muscarinic acetylcholine receptor M4” (Vanderbilt University, priority 2012, dated 2018).

Molecules are shown by their SMILES. Like-named read-outs stand apart in the source and are kept apart here.

In this test the target is T1, mAChR M4 (Homo sapiens, UniProt P08173).
T1 construct: expressed in transfected cells; host or cells: CHO-K1 cells stably transfected with M4 cDNA and chimeric G-protein Gqi5
T1 sequence (P08173 1-479): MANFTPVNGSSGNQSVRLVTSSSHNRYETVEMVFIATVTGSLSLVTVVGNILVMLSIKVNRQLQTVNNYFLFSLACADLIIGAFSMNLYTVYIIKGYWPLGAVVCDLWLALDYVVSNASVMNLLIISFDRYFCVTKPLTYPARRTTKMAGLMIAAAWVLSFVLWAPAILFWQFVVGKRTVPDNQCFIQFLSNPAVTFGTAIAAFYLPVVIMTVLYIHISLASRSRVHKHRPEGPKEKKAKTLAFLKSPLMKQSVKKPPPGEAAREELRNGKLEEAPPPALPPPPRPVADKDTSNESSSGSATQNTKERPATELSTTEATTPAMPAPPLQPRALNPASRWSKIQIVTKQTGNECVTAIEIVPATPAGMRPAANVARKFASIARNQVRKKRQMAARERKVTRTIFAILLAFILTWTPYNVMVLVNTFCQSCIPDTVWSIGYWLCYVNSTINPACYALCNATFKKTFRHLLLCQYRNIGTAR
Kind of test: mAChR M4 cell-based functional assay (calcium mobilization, potentiation of EC20 acetylcholine response). The following applies: for Emax at 30 µM / Emax (%)*: % ACh maximum at 30 μM. For orientation: Calcium flux is commonly read through the fluorescence of an indicator in the cells.

Setting [1] is: mAChR M4 cell-based functional assay, >10,000 estimated for low potency compounds without plateau, read-out: EC50.

In general, Emax refers to the greatest response seen or fitted, relative to the assay's reference. Usually EC50 stands for the midpoint of the concentration-response curve. With `COc1ccc([C@H]2C[C@@H]2NC(=O)c2sc3nnc(C)c(C)c3c2N)cc1` (single isomer, unassigned) [Example B31], the Emax at 30 µM came out at 79%. Further, under setting [1], the EC50 was 7.5 nM.
The matching figures for `COc1ccc([C@@H]2C[C@H]2NC(=O)c2sc3nnc(C)c(C)c3c2N)cc1` (single isomer, unassigned) [Example B32]: 73% and 300 nM.
As for `Cc1nnc2sc(C(=O)N[C@H]3C[C@@H]3c3ccc(S(C)(=O)=O)cc3)c(N)c2c1C` (single isomer, unassigned) [Example B110], the Emax at 30 µM came to 62%. The EC50 under setting [1] was 18 nM.
In the case of `Cc1nnc2sc(C(=O)N[C@@H]3C[C@H]3c3ccc(S(C)(=O)=O)cc3)c(N)c2c1C` (single isomer, unassigned) [Example B111], the Emax at 30 µM amounted to 60%. For the same molecule, the half-maximal effective concentration (EC50) under setting [1] is 240 nM.
The like results for `Cc1nnc2sc(C(=O)NCc3ccc(C(C)(O)C(F)(F)F)cc3)c(N)c2c1C` (single isomer, unassigned) [Example B186] were, in that order, 75% and 19 nM.
As for `Cc1nnc2sc(C(=O)NCc3ccc(C(C)(O)C(F)(F)F)cc3)c(N)c2c1C` (single isomer, unassigned) [Example B187], the “Emax (%)*” value stood at 84%. Further, the EC50 under setting [1] was 20 nM.
For the molecule `Cc1nnc2sc(C(=O)NCc3ccc([S+]([O-])C(F)F)cc3)c(N)c2c1C` (single isomer, unassigned) [Example B491], the Emax at 30 µM was found to be 63%. Further, under setting [1], the EC50 is 120 nM.
For the molecule `Cc1nnc2sc(C(=O)NCc3ccc([S+]([O-])C(F)F)cc3)c(N)c2c1C` (single isomer, unassigned) [Example B510], the “Emax (%)*” value stood at 70%. Moreover, the EC50 under setting [1] was 500 nM.
On to `Nc1c(C(=O)NC2CC2)sc2nnccc12` [Example B1], for which the Emax at 30 µM was 40%. Besides, the EC50 under setting [1] was above 10000 nM.
The matching figures for `COc1ccc(CNC(=O)c2sc3nnccc3c2N)cc1` [Example B2]: 61% and above 10000 nM.
Take `Cc1nnc2sc(C(=O)NCc3ncccn3)c(N)c2c1C` [Example B3]: the Emax at 30 µM is 46%. In addition, the EC50 under setting [1] was above 10000 nM.
As to `Cc1cc(CNC(=O)c2sc3nnc(C)c(C)c3c2N)ccn1` [Example B4], the Emax at 30 µM was found to be 96%. Under setting [1], the EC50 is 640 nM.
In the case of `Cc1nnc2sc(C(=O)NCc3cc(F)ccc3F)c(N)c2c1C` [Example B5], the Emax at 30 µM is 86%. Moreover, under setting [1], the EC50 was 180 nM.
The matching figures for `Cc1nnc2sc(C(=O)NCC3CC3)c(N)c2c1C` [Example B6]: 89% and 500 nM.
For the molecule `Cc1nnc2sc(C(=O)NCc3cccc(F)c3)c(N)c2c1C` [Example B7], the Emax at 30 µM was determined as 97%. For the same molecule, the EC50 under setting [1] is 140 nM.
Consider `Cc1nnc2sc(C(=O)NC3CC3)c(N)c2c1C` [Example B8], for which the maximum response (Emax) at 30 µM stood at 97%. In addition, the EC50 under setting [1] is 260 nM.
With `Cc1nnc2sc(C(=O)NCc3ccccc3)c(N)c2c1C` [Example B9], the Emax at 30 µM came to 97%. Further, the EC50 under setting [1] is 170 nM.
Turning to `Cc1nnc2sc(C(=O)NCc3cnccn3)c(N)c2c1C` [Example B10], the Emax at 30 µM was determined as 82%. Also, the EC50 under setting [1] is above 10000 nM.
The like results for `Cc1nnc2sc(C(=O)NCc3nccs3)c(N)c2c1C` [Example B11] were, in that order, 82% and 1500 nM.
For `Cc1nnc2sc(C(=O)NCc3ccc4c(c3)OCO4)c(N)c2c1C` [Example B12], the Emax at 30 µM was found to be 90%. In addition, the EC50 under setting [1] is 93 nM.
Regarding `Cc1nnc2sc(C(=O)NCc3ccccn3)c(N)c2c1C` [Example B13], the Emax at 30 µM was determined as 58%. Moreover, under setting [1], the EC50 was 1000 nM.
Regarding `Cc1nnc2sc(C(=O)NCc3ccncc3)c(N)c2c1C` [Example B14], the Emax at 30 µM came out at 100%. The EC50 under setting [1] is 320 nM.
`Cc1nnc2sc(C(=O)NCc3cccc(F)c3F)c(N)c2c1C` [Example B15]: the maximal effect (Emax) at 30 µM is 97%. Moreover, the EC50 under setting [1] was 100 nM.
For the molecule `COc1ccc(CNC(=O)c2sc3nnc(C)c(C)c3c2N)cc1` [Example B16], the Emax at 30 µM is 99%. Besides, the EC50 under setting [1] is 250 nM.
The matching figures for `Cc1nnc2sc(C(=O)NCc3ccncn3)c(N)c2c1C` [Example B17]: 83% and above 10000 nM.
For `Nc1c(C(=O)NCc2cccc(F)c2F)sc2nnccc12` [Example B18], the Emax at 30 µM is 60%. The EC50 under setting [1] was above 10000 nM.
On to `Nc1c(C(=O)NCc2ccccc2)sc2nnccc12` [Example B19], for which the Emax at 30 µM was found to be 53%. Also, the EC50 under setting [1] is above 10000 nM.
For `CS(=O)(=O)c1ccc(CNC(=O)c2sc3nnccc3c2N)cc1` [Example B20], the Emax at 30 µM is 41%. Besides, the EC50 under setting [1] is above 10000 nM.
Regarding `Nc1c(C(=O)NCc2cccc(F)c2)sc2nnccc12` [Example B21], the maximal effect (Emax) at 30 µM turned out to be 59%. Besides, the EC50 under setting [1] is above 10000 nM.
The matching figures for `Nc1c(C(=O)NCc2ccc3c(c2)OCO3)sc2nnccc12` [Example B22]: 63% and 2800 nM.
The like results for `Cc1nnc2sc(C(=O)NCc3ccc(S(C)(=O)=O)cc3)c(N)c2c1C` [Example B23] were, in that order, 83% and 450 nM.
The matching figures for `Cc1nnc2sc(C(=O)NC3COC3)c(N)c2c1C` [Example B24]: 80% and 520 nM.
Consider `Cc1nnc2sc(C(=O)NCC(C)(C)O)c(N)c2c1C` [Example B25], for which the Emax at 30 µM was 56%. Moreover, the EC50 under setting [1] was above 10000 nM.
In the case of `CSc1ccc(CNC(=O)c2sc3nnc(C)c(C)c3c2N)cc1` [Example B26], the Emax at 30 µM is 76%. Besides, the EC50 (EC50 (nM)) came out at 11 nM.
Turning to `Cc1nnc2sc(C(=O)NCc3ccc4c(c3)CCO4)c(N)c2c1C` [Example B27], the Emax at 30 µM is 76%. In addition, the EC50 under setting [1] is 42 nM.
As to `Cc1nnc2sc(C(=O)NCCN3CCOCC3)c(N)c2c1C` [Example B28], the Emax at 30 µM was 54%. For the same molecule, under setting [1], the EC50 is above 10000 nM.
The matching figures for `Cc1nnc2sc(C(=O)NCc3ccc4c(c3)OCCO4)c(N)c2c1C` [Example B29]: 76% and 30 nM.
With `COc1ccc(C2CC2NC(=O)c2sc3nnc(C)c(C)c3c2N)cc1` (centres unmarked) [Example B30], the Emax at 30 µM stood at 76%. Besides, the EC50 under setting [1] was 14 nM.
As for `Cc1nnc2sc(C(=O)NCc3ccc(S(C)(=O)=O)c(F)c3)c(N)c2c1C` [Example B33], the Emax at 30 µM is 73%. The EC50 under setting [1] is 37 nM.
In the case of `Cc1nnc2sc(C(=O)NCc3ccc([S+](C)[O-])cc3)c(N)c2c1C` (centres unmarked) [Example B34], the Emax at 30 µM is 82%. Also, the EC50 (EC50 (nM)) came to 140 nM.
For `Cc1nnc2sc(C(=O)NC3CCOC3)c(N)c2c1C` (centres unmarked) [Example B35], the Emax at 30 µM was found to be 77%. Also, the EC50 under setting [1] is 840 nM.
Take `Cc1nnc2sc(C(=O)Nc3ccccn3)c(N)c2c1C` [Example B36]: the Emax at 30 µM is 29%. The EC50 under setting [1] is 1700 nM.
For the molecule `[2H]C([2H])(NC(=O)c1sc2nnc(C)c(C)c2c1N)c1ccc(OC)cc1` [Example B37], the Emax at 30 µM turned out to be 68%. In addition, the EC50 under setting [1] was 32 nM.
`Cc1nnc2sc(C(=O)Nc3ccncc3)c(N)c2c1C` [Example B38]: the Emax at 30 µM was 54%. Moreover, the EC50 under setting [1] is 600 nM.
In the case of `Nc1c(C(=O)NCc2ccncc2)sc2nnc(-c3ccccc3)c(-c3ccccc3)c12` [Example B39], the Emax at 30 µM is 40%. Also, the EC50 under setting [1] was above 10000 nM.
The like results for `COc1ccc(CNC(=O)c2sc3nnc(-c4ccccc4)c(-c4ccccc4)c3c2N)cc1` [Example B40] were, in that order, 47% and 2700 nM.
For the molecule `CS(=O)(=O)c1ccc(CNC(=O)c2sc3nnc(-c4ccccc4)c(-c4ccccc4)c3c2N)cc1` [Example B41], the Emax at 30 µM came out at 48%. In addition, the EC50 under setting [1] was above 10000 nM.
In the case of `Cc1nnc2sc(C(=O)NCc3ccc4c(c3)OC(F)(F)O4)c(N)c2c1C` [Example B42], the Emax at 30 µM stood at 76%. Further, the EC50 under setting [1] was 26 nM.
Turning to `Cc1nnc2sc(C(=O)NCc3ccc4nonc4c3)c(N)c2c1C` [Example B43], the Emax at 30 µM was 75%. In addition, the EC50 under setting [1] was 270 nM.
On to `Cc1nnc2sc(C(=O)NCc3cccc(S(C)(=O)=O)c3)c(N)c2c1C` [Example B44], for which the Emax at 30 µM is 75%. Also, under “EC50 (nM)”, the EC50 came to 420 nM.
On to `Cc1nnc2sc(C(=O)NCc3cc(F)c(F)cc3F)c(N)c2c1C` [Example B45], for which the Emax at 30 µM was 71%. Moreover, the EC50 under setting [1] was 45 nM.
For the molecule `Cc1nnc2sc(C(=O)NC3CN(Cc4ccc(F)cc4)C3)c(N)c2c1C` [Example B46], the Emax at 30 µM is 38%. Further, the EC50 under setting [1] is above 10000 nM.
Turning to `Cc1nnc2sc(C(=O)NCc3ccc(S(=O)(=O)C(C)(C)C)cc3)c(N)c2c1C` [Example B47], the Emax at 30 µM amounted to 76%. Moreover, under setting [1], the EC50 was 41 nM.
As to `Cc1nnc2sc(C(=O)NCc3ccc(S(=O)(=O)C(C)C)cc3)c(N)c2c1C` [Example B48], the maximum response (Emax) at 30 µM was 77%. The EC50 (EC50 (nM)) stood at 48 nM.
Regarding `CCS(=O)(=O)c1ccc(CNC(=O)c2sc3nnc(C)c(C)c3c2N)cc1` [Example B49], the maximal response (Emax) at 30 µM was determined as 64%. Also, under setting [1], the EC50 was 48 nM.
